Results on 12 compounds are retold here after patent US6617361B2, “Behavior chemotherapy” (Be Able, LLC, priority 1999, dated 2003).

Where a name gives a salt, the structure may show the parent alone.

Data set [1] concerns Patient six. Nature of the data set: Protocol and results with patient six, Example 12 (thalamic pain syndrome, ethanol use). The conditions noted are these: for body weight change: approximately five weeks into therapy, combination Adipex-P + fenfluramine + Celexa + Nutrimed; for energy level / pain as described by patient: combination Adipex-P 37.5 one-half b.i.d. + fenfluramine 10 mg + Celexa 10 mg + Nutrimed three times daily (+ atenolol 25 mg); for alcohol withdrawal phenomena: combination Adipex-P 37.5 one-half b.i.d. + fenfluramine 10 mg + Celexa 10 mg + Nutrimed three times daily + Librium 30 mg (three days) + atenolol 25 mg; for outcome of earlier trials for thalamic pain syndrome: before the protocol. The procedure:
Person with sudden onset of numbness right side of body in Guyana 1973. […] Diagnosis was thalamic pain syndrome.
Other medical problems: borderline hypertension, obesity secondary to ETOH, hemorrhoids, and remote short-lived cigarette smoking.
At the time therapy started the patient was taking either hydrocodone/APAPE 7.5/500 as needed or Percocet. […] Therapy was started with Adipex-P 37.5 one-half p.o. bid., fenfluramine 10 mg p.o. q.a.m., Celexa 10 mg p.o. q.a.m., Nutrimed three times daily plus dinner for nutritional support (Nutrimed is a high protein, low carbohydrate semi-starvation fast), Librium 30 mg q.d. because of the discontinuation of alcohol, atenolol 25 mg q.a.m. Treatment started July 1999.
By mid-August, approximately five weeks into therapy, the patient was still on Nutrimed and Adipex but the fenfluramine was diminished to one-quarter of a pill or 5 mg. The atenolol was discontinued and the patient was encouraged to exercise.

Another data set relates to Patient five. The experiment in a line: Protocol and results with patient five (severe obesity). The format is in vivo, human. The conditions noted are these: for body weight: December 1997, combination Ionamin 30 mg + fenfluramine 20 mg + Zoloft 25 mg q.d. since August 1995, start in excess of 350 lb; for body weight reported by phone: combination Adipex-P 37.5 mg one-half b.i.d. + Celexa 20 mg one-half MWF + Adalat 30 + Aricept + Nutrimed three times daily, from 264¼ lb. The source says:
This person has been a patient in this practice for many years. Their medical problems are extremely long-lived and include chronic depression, severe obesity, hypertension, stasis dermatitis, and venous insufficiency of the lower extremities, and seborrhea.
In addition they were taking Lasix, Zaroxolyn and potassium for the control of their severe edema and leg pain. They were also using the CPAP machine.
At their insistence Meridia and Adalat were attempted. […] To augment the weight loss the patient was started on Nutrimed three times daily plus a regular dinner.

The test system of the next data set is Patient four. The experiment in a line: Protocol and results with patient four (morbid obesity, cardiomyopathy). The format is in vivo, human. The conditions noted are these: for cardiac index remeasured / body weight the next month: combination Adipex-P 37.5 one-half + Zoloft 25 mg + Aricept 1.25 mg + fenfluramine 5 mg (+ atenolol 12.5 mg); for body weight the next month: from 235 lb June 1999. On the procedure:
This person has been in the practice for several years. Their medical problems surround a cardiomyopathy with a low cardiac output state and heart failure. They also have a history of hypertension, hypothyroidism on therapy, and morbid obesity.
Medication alterations continued over the next several months with increasing Ionamin to 30 mg. Hytrin was added at 2 mg because of prostatic symptoms and in November Pondimin was added.
Adipex-P 37.5 one-half was added to their medications. […]

Another data set has as its system Patient one. The experiment in a line: Protocol and results with patient one (cigarette smoking). The conditions noted are these: January 1998; Ionamin 15 mg + Prozac 10 mg MWF (+ Estratest, occasional Tranxene).
Another data set relates to Patient three. Nature of the data set: Protocol and results with patient three (chronic fatigue). Conditions: for side effect noted by patient: combination reduced to Adipex-P 37.5 one-half, Celexa one-quarter, Aricept one-quarter, fenfluramine one-quarter pill q.a.m.; for patient-reported status: within two days, combination Adipex-P 37.5 mg one-half b.i.d. + Celexa 10 mg q.d. + fenfluramine 10 mg q.d. + Aricept one-half q.d. From the text:
Longstanding patient in my practice who […] developed a viral illness followed by chronic fatigue. This problem persisted, numerous evaluations and consultations were obtained, in excess of 20 physicians were consulted, and the patient was followed for nine months in a major medical center with the diagnosis of chronic Lyme disease. Prior to this their symptoms included a compendium of mild lifelong autonomic dysfunction including chronic bladder and urethral problems which necessitated urological surgery in the distant past. They had not retired from work but had taken long leaves of absence and found it difficult to keep up their normal work schedule as a social worker, something they had done for many years. In the past for their autonomic dysfunction they had been placed on Depakote, Wellbutrin, and amitriptyline and they were on this when they became ill.
Their other medical problems included mitral valve prolapse with click and no murmur but no symptoms, a history of endometriosis, occasional kidney stones, and an ovarian cyst.
Therapy was begun on May 26, 1999. On Jun. […] They were still on 12.5 mg of Elavil or one-half pill and some minocin for acne, Wellbutrin from their psychiatrist, and Zithromax, an antibiotic started by other physicians for the treatment of Lyme disease. This is something that I advised them to discontinue, but they continued because of the concerns of the diagnosis.

For a further data set, the system named is Patient two. The experiment in a line: Protocol and results with patient two (leg pain, absence of energy). The data set is classed as in vivo, human. Conditions: for body weight: August 1999, from 143 lb November 1998, Celexa 10 mg + Adipex-P 37.5 one-half (+ atenolol 25 mg), later with Aricept 1.25 mg three times weekly; for weight reduction / leg aches: Celexa + Adipex-P + Aricept (atenolol at first); for weight reduction: November 1998 to August 1999; for leg aches: by August 1999. On the procedure:
First evaluated this 5′4″, ectomorphic, single person who was […] at the time.
On Nov. […] They were started on Celexa 10 mg, Adipex-P 37.5 one-half tablet, and atenolol 25 mg all in the morning.
They will keep in touch with me as they will take each instruction for four doses and then go to the next.

Data set [2] relates to Patient six. The experiment in a line: Protocol and results with patient six, Example 10 (fibromyalgia, obesity). The format is in vivo, human. Conditions: for weight lost on therapy to date: Ionamin + fenfluramine (until 1996) + Zoloft from December 1995, Aricept from August 1998; for body weight: July 1999; for overall condition: over three years from December 1995, combination Ionamin 30 mg + fenfluramine 20 mg + Zoloft 25 mg, fenfluramine discontinued 1996. From the text:
This longstanding patient was first seen in 1988 for fibromyalgia. They are also bothered by chronic low back pain, mitral valve prolapse, sleep disturbance, a family history of coronary disease, and obesity. They are 5′8″ tall, 205½ lb. […] Their problem list contained the additional diagnoses of GERD, carpal tunnel syndrome, suspected mitral valve prolapse, and acne rosacea.
Their medication list included Synthroid, Estratest, Klonopin, Prilosec, Limbitrol, Provera, Premarin and Zostrix cream. […] They frequented health food stores, as well as chiropractors for relief.
Although greatly fearful of potential long-term problems, the patient finally agreed to the institution of a change in their medications and started therapy which was a major change in their medicines December 1995. […] At that time the patient's weight was in the mid 180s. Their other medications were continued.
This was an independent patient-initiated decision.

Where [3] appears, read: July 1997, combination Ionamin 30 mg + Zoloft 25 + Pondimin.
[4] abbreviates: November, Ionamin (15 then 30 mg) + Zoloft 25 since April 1996, before Pondimin, not decreasing, averaging 237 lb before.
Setting [5] is: current medication includes Ionamin 15 mg q.a.m. and Aricept one-quarter pill MWF.

Description for Patient one: In addition, they were started on the moderate dose of the patch.

With `CC(C)(N)Cc1ccccc1` [Adipex-P, phentermine], in the data set with Patient six [1], the body weight change result is recorded as “marked weight loss”, the energy level result is given as “marked improvement in energy level”, the “pain as described by patient” value is recorded as “markedly diminished” and the alcohol withdrawal phenomena result is on record as “no withdrawal phenomena”. In the data set with Patient five, the body weight is reported as 245 lb and the body weight reported by phone was approximately 240 lb. For the same compound, the “improvement (weight, fatigue)” value with Patient four (Adipex-P 37.5 one-half + Celexa 10 mg twice weekly + Aricept one-quarter pill MWF, in the absence of fenfluramine) is recorded as “essentially no improvement”. Moreover, in the data set with Patient four (setting [3]), the body weight was determined as 217 lb and the “cardiac output by echocardiography” value is reported as “improved”. Also, the body weight in the data set on Patient four (setting [4]) was found to be 230 lb. For the same compound, in the data set on Patient four, the cardiac index remeasured result is reported as “even more improved than previously” and the “body weight the next month” value came out at 218. Further, in the data set with Patient one, the body weight is given as 119 lb and the smoking status entry is “not smoking”. In the data set with Patient three, the “side effect noted by patient” value is listed as “some difficulty sleeping” and the patient-reported status result was “life had been transformed back towards its normal status”. Further, in the data set with Patient two, the body weight was 127 lb, the weight reduction is on record as 12.5% and the leg aches result is given as “resolution of their leg aches”. In the data set with Patient six [2], the “weight lost on therapy to date” value was “approximately 25 lb” and the overall condition result is recorded as “greatly improved”. In addition, in the data set on Patient six [2] (setting [5]), the body weight came out at 161 lb and the “chronic fatigue remaining, of its original” value is approximately 20%.
Turning to `COc1cc2c(cc1OC)C(=O)C(CC1CCN(Cc3ccccc3)CC1)C2` (stereo not shown) [Aricept, donepezil], in the data set on Patient two, the weight reduction was determined as 12.5% and the leg aches entry was “resolution of their leg aches”. In addition, in the data set on Patient six [2] (Aricept 2.5 mg Monday, Wednesday, Friday added August 1998 to ongoing therapy), the “patient-reported status after addition” value is recorded as “felt much better”. Moreover, in the data set with Patient six [2], the “weight lost on therapy to date” value is recorded as “approximately 25 lb”. Also, in the data set on Patient six [2] (setting [5]), the body weight is given as 161 lb.
Turning to `CN(C)CCCC1(c2ccc(F)cc2)OCc2cc(C#N)ccc21` (stereo not shown) [Celexa, citalopram], the body weight reported by phone with Patient five was approximately 240 lb. In addition, in the data set on Patient two, the body weight is given as 127 lb and the weight reduction was 12.5%.
As to `O=C1NC(=O)C(c2ccccc2)(c2ccccc2)N1` [Dilantin], in the data set on Patient six [1], the “outcome of earlier trials for thalamic pain syndrome” value (from here on “outcome of earlier trials”) is “no help”.
Same read-out and setting: for `CN(C)CCC=C1c2ccccc2CCc2ccccc21` [Elavil] the value was “no help”.
In the case of `CNC1=Nc2ccc(Cl)cc2C(c2ccccc2)=[N+]([O-])C1` [Librium], the side effect entry with Patient six [1] (30 mg q.d., discontinued by day three) was “mild sleepiness”. Also, the alcohol withdrawal phenomena result with Patient six [1] is “no withdrawal phenomena”.
Take `NCC1(CC(=O)O)CCCCC1` [Neurontin]: in the data set on Patient six [1], the “outcome of earlier trials” value is reported as “no help”.
For the compound `CNCCC(Oc1ccc(C(F)(F)F)cc1)c1ccccc1` (stereo not shown) [Prozac, fluoxetine HCl], in the data set with Patient one, the body weight was 119 lb and the smoking status result is reported as “not smoking”.
Turning to `NC(=O)N1c2ccccc2C=Cc2ccccc21` [Tegretol], the “outcome of earlier trials” value in the data set on Patient six [1] is “no help”.
On to `CN[C@H]1CC[C@@H](c2ccc(Cl)c(Cl)c2)c2ccccc21` [Zoloft, sertraline HCl], for which the body weight with Patient five came to 245 lb. Moreover, in the data set with Patient four (setting [3]), the “cardiac output by echocardiography” value is given as “improved”. For the same compound, the body weight in the data set on Patient four (setting [4]) is given as 230 lb. Moreover, in the data set with Patient six [2], the “weight lost on therapy to date” value is on record as “approximately 25 lb” and the overall condition entry is on record as “greatly improved”.
On to `CCNC(C)Cc1cccc(C(F)(F)F)c1` (stereo not shown) [fenfluramine], for which, in the data set with Patient six [1], the body weight change entry was “marked weight loss”, the energy level entry is on record as “marked improvement in energy level”, the “pain as described by patient” value is on record as “markedly diminished” and the alcohol withdrawal phenomena result is on record as “no withdrawal phenomena”. The body weight in the data set with Patient five came out at 245 lb. In the data set with Patient four (setting [3]), the body weight came out at 217 lb and the “cardiac output by echocardiography” value was “improved”. Also, in the data set on Patient four, the cardiac index remeasured result is “even more improved than previously” and the “body weight the next month” value was 218. Besides, in the data set on Patient three, the “side effect noted by patient” value is “some difficulty sleeping” and the patient-reported status entry is “life had been transformed back towards its normal status”. In addition, in the data set with Patient six [2], the “weight lost on therapy to date” value is “approximately 25 lb” and the overall condition result was “greatly improved”.
“hydrocodone/APAPE [hydrocodone/APAPE 7.5/500]”: the effect on pain result in the data set on Patient six [1] (taken as needed at the time therapy started) is listed as “not effective”.
